Source: article PMC8834644, “Effect of FKBP12-Derived Intracellular Peptides on Rapamycin-Induced FKBP–FRB Interaction and Autophagy” (Cells, 2022)

How the values were obtained:
[1] = test system: rapamycin-induced FKBP–FRB interaction within HEK293 cells; assay: NanoBiT luciferase structural complementation assay of rapamycin-induced FKBP–FRB interaction; assay type: cell-based, human; settings: HEK293 co-transfected with FRB-LgBit and FKBP-SmBiT, 200 nM rapamycin, RLU for 60 min, qualitative; for peptide concentration inhibiting rapamycin-induced FKBP–FRB interaction: peptide added with rapamycin plus booster after 30 min, at least five determinations in triplicates
Protocol: The protein complementation assay technology used herein, NanoBiT® (Promega, Madison, WI, USA), was commercially designed to investigate inducible PPI under in vivo cellular conditions, allowing the analyses of distinctive molecules that, introduced within cells, can modify inducible PPI [58]. All experimental procedures were performed according to the manufacturer’s recommendations. Briefly, transient transfections were performed with NanoBiT® PPI Control Pair FKBP–FRB (Promega, Madison, WI, USA; catalog number N2016), containing the FRB-LgBit and FKBP-SmBiT vectors (NanoBiT® PPI Control Pair FKBP, FRB; catalog number N2016, Promega, Madison, WI, USA). Plasmids were co-transfected into HEK293 cells using FuGENE® 6 Transfection Reagent (Promega, Madison, WI, USA), according to the recommendations of the manufacturers. Cells transfected in the absence of DNA were the negative controls of the experiments, whereas the green fluorescent protein expressing pEGFP plasmid (Clontech, Mountain View, CA, USA; 100 ng) was used to evaluate transfections efficiencies; after 30 h of transfection, the pEGFP expression was easily assessed by fluorescent microscopy (data not shown).
HEK293 cells (approximately 10^4) cultured in a 96-well plate in DMEM high-glucose medium, supplemented with 10% FBS and 1% penicillin/streptomycin, were transiently co-transfected with 200 ng of both […] and FKBP-SmBiT vectors (NanoBiT® PPI Control Pair FKBP, FRB; catalog number N2016, Promega, Madison, WI, USA); this final plasmid concentration of 200 ng was defined previously testing different plasmid concentrations, as shown in Supplemental Figure S1A. The transfected cells were incubated in Opti-MEM® I Reduced Serum Medium culture medium (Gibco, Gaithersburg, MD, USA) for 2 h and then treated with 200 nM of rapamycin (BPSBioscience, CAS 53123-88-9, San Diego, CA, USA) diluted in Opti-MEM®/0.01% DMSO (Gibco, Gaithersburg, MD, USA; this rapamycin concentration of 200 nM was defined previously testing different concentrations, as shown in Supplemental Figure S1B). […] Graphs of RLU versus time were plotted by GraphPad Prism (GraphPad, San Diego, CA, USA). Control experiments were conducted using VFD10 and VFD7 without cpp covalently bound, in addition to cpp alone (Supplemental Figure S2).

[2] = test system: HEK293 cells; settings: introduced into HEK293 cells by transient membrane permeabilization with CHAPS; cited from earlier work
Protocol: (§1) VFD10 and VFD7 (10–50 µM) were shown by surface plasmon resonance to inhibit PPI between cytosolic brain proteins and both calmodulin (CaM) and 14-3-3 epsilon. VFD7 (5–20 µM) introduced into the HEK293 cells by means of transient membra ...

[3] = test system: PPI between cytosolic brain proteins and 14-3-3 epsilon; settings: surface plasmon resonance; cited from earlier work
Protocol: as §1

[4] = test system: PPI between cytosolic brain proteins and calmodulin (CaM); settings: surface plasmon resonance; cited from earlier work
Protocol: as §1

[5] = test system: thimet oligopeptidase and CaM; settings: in vitro surface plasmon resonance; cited from earlier work
[6] = test system: Atg5^+/+ mouse embryonic fibroblasts cells (MEF); assay: Cell viability (MTT) after hypoxia-reoxygenation, Atg5+/+ MEF; assay type: cell-based; settings: 1 µM peptide from 30 min before ischemia with boosters, 3 h hypoxia, 3 h reoxygenation; n = 3 independent experiments; vs. cpp
Protocol: (§2) These experiments were performed to evaluate the possible pharmacological application of VFD7-cpp and additional selected peptides on cell viability, following an ischemic challenge. These experiments also contributed to investigate the possible biological significance of InPeps for cell viability following hypoxia-reoxygenation. Therefore, herein the effect of peptides was evaluated in wild type mouse embryonic fibroblasts cells (MEF) expressing Atg5 (Atg5^+/+) and in the MEF missing autophagy pathway due to the lack of Atg5 (Atg5^−/−); Atg5 is indispensable in both canonical and non-canonical autophagy. Atg5^+/+ and Atg5^−/− MEF were cultured in a 96-well plate in DMEM high-glucose medium supplemented with 10% FBS and 1% penicillin/streptomycin, as previously described. […] After the protocol, cell viability was measured by using tetrazolium salt 3-(4,5-Dimethylthiazol 2-yl)-2,5-diphenyltetrazolium bromide (MTT) assay; these assays measure the mitochondrial metabolic rate and indirectly reflect the viable cell numbers, which are the most commonly used method to evaluate the effect of compounds on cell viability on cultured cells. […]

[7] = test system: autophagy-deficient Atg5^−/− MEF cells; assay: Cell viability (MTT) after hypoxia-reoxygenation, Atg5-/- MEF; assay type: cell-based, mouse; settings: 1 µM peptide from 30 min before ischemia with boosters, 3 h hypoxia, 3 h reoxygenation; n = 3 independent experiments
Protocol: as §2

[8] = after 30 min of internalization into Chinese hamster ovarian cells; random control peptide; cited from earlier work
Protocol: Hundreds of InPeps have been described from the most diverse sources, including plants, yeast, fish, and mammals. Despite of the strong evidence that InPeps are natural constituents of the cells, the expected short half-life of peptides within cells full of peptidases contests their stability and biological significance. […] For example, after 30 min of internalization into Chinese hamster ovarian cells, the ...

VFDVELL [VFD7, InPep VFDVELL derived from FKBP12]
effect on rapamycin-induced FKBP–FRB interaction (in words) [1]: have no effect | peptide concentration shown to increase cytosolic Ca2+ concentrations [2]: 5 to 20 µM | peptide concentration shown to inhibit PPI with 14-3-3 epsilon [3]: 10 to 50 µM | peptide concentration shown to inhibit PPI with calmodulin [4]: 10 to 50 µM | effect on thimet oligopeptidase–CaM interaction (in words) [5]: inhibits the interaction but does not disrupt the association

VFAVELLYGRKKKRRQRRR [VFA7-cpp, VFD7-cpp with D substituted to A]
effect on rapamycin-induced FKBP–FRB interaction (in words) [1]: unable to alter rapamycin-induced FKBP–FRB interactions

EVELLYGRKKKRRQRRR [EVE5-cpp, derived from VFD5-cpp, D to E]
effect on rapamycin-induced FKBP–FRB interaction (in words) [1]: unable to alter rapamycin-induced FKBP–FRB interactions

AVELLYGRKKKRRQRRR [AVE5-cpp, derived from VFD5-cpp, D to A]
effect on rapamycin-induced FKBP–FRB interaction (in words) [1]: unable to alter rapamycin-induced FKBP–FRB interactions

YGRKKKRRQRRR [cpp, cell-penetrating peptide used alone as control, reference compound]
effect on rapamycin-induced FKBP–FRB interaction (in words) [1]: have no effect

VFDVELLKLEYGRKKKRRQRRR [VFD10-cpp, VFD10 covalently coupled to cpp at C-terminus]
effect on rapamycin-induced FKBP–FRB interaction (in words) [1]: unable to alter rapamycin-induced FKBP–FRB interactions

VELLYGRKKRRQRRR [VFD4-cpp, N-terminally shortened VFD7-cpp derivative]
effect on rapamycin-induced FKBP–FRB interaction (in words) [1]: reduced potencies compared to VFD6-cpp or VFD7-cpp | peptide concentration inhibiting rapamycin-induced FKBP–FRB interaction [1]: 500 nM

DVELLYGRKKRRQRRR [VFD5-cpp, N-terminally shortened VFD7-cpp derivative]
effect on rapamycin-induced FKBP–FRB interaction (in words) [1]: reduced potencies compared to VFD6-cpp or VFD7-cpp | peptide concentration inhibiting rapamycin-induced FKBP–FRB interaction [1]: 500 nM

VFDVELLKLE [VFD10, InPep … derived from FKBP12]
effect on rapamycin-induced FKBP–FRB interaction (in words) [1]: have no effect | peptide concentration shown to inhibit PPI with 14-3-3 epsilon [3]: 10 to 50 µM | peptide concentration shown to inhibit PPI with calmodulin [4]: 10 to 50 µM

FDVELLYGRKKKRRQRRR [VFD6-cpp, FDVELL (VFD6) covalently coupled to cpp]
peptide concentration inhibiting rapamycin-induced FKBP–FRB interaction [1]: 1 to 500 nM | cell viability after hypoxia-reoxygenation (MTT) [6]: increase cell viability | cell viability after hypoxia-reoxygenation (MTT) [7]: but not on autophagy-deficient Atg5^−/− MEF cells

VNMVPVGWASFR [random peptide used as the control in an earlier study]
peptide recovered after internalization [8]: 100%

VFEVELLYGRKKKRRQRRR [VFE7-cpp, VFD7-cpp with D substituted to E]
effect on rapamycin-induced FKBP–FRB interaction (in words) [1]: unable to alter rapamycin-induced FKBP–FRB interactions
